According to US8048440B2, “Thermoplastic fluoropolymer-coated medical devices” (Gore Enterprise Holdings, Inc., priority 2002, dated 2011):
Structures can show the parent of a compound that is named as a salt.

Experiment: release of chlorhexidine dihydrochloride from the pocketed TFE/PMVE film composite in PBS, with needle puncture
Format: physicochemical
Conditions: 1 cm by 1 cm composite in PBS at 37° C., punctured with 16-gauge needle
Source text: A polypropylene template with 0.7 mm diameter holes arranged in a rectangle pattern was made to facilitate manufacturing of the device. The holes were evenly spaced approximately 2 mm apart, from edge to edge. This template was placed on top of one of the TFE/PMVE extruded sheets, then dusted with chlorhexidine dihydrochloride. The template was removed, leaving a dot-matrix pattern of the drug on the surface of the extruded film. A second sheet of extruded polymer was gently placed on top of the first sheet. The composite of polymer sheets and drug was wrapped in aluminum foil, placed between two metal plates, heated in an oven set at 115° C. for 15 minutes, removed from the oven, immediately pressed between the two hot metal plates for 15 minutes, and then removed from the metal plates and aluminum foil. This process created encapsulated drug pockets between the polymer films. An approximately 1 cm by 1 cm square of finished material was placed into phosphate buffered saline (PBS) at 37° C., periodically sampled for antimicrobial content, and punctured with a 16-gauge needle. The release of the chlorhexidine dihydrochloride as a function of puncturing the composite and time in solution is shown in FIG. 7C. […] Thus, an additional dose of the drug can be delivered on demand as a consequence of puncturing drug pockets.

SMILES: [H]/N=C(\N/C(=N/[H])NCCCCCCNC(=N)NC(=N)Nc1ccc(Cl)cc1)Nc1ccc(Cl)cc1 [chlorhexidine dihydrochloride]
- release of chlorhexidine dihydrochloride as a function of puncturing and time in solution: continuously released at a minimal level until the composite was punctured with the needle
